According to patent publication US10927398B2, “Compositions for CYP450 phenotyping using saliva samples” (Concordia University, Inc., priority 2015, dated 2021):
“And” between values parts separate entries of the source, which are not always exact repeats. Identical values can stand only once. Like-named read-outs stand apart in the source and are kept apart here.

Experiments:
CYP2D6 [1] = details: Hou et al., saliva, cited from earlier work
[2] = cited from earlier work
[3] = cited from earlier work; remark: listed apart in the source
CYP2D6 [4] = test: Saliva phenotyping with dextromethorphan probe (dextromethorphan/dextrorphan metabolic ratio); format: in vivo, human; details: saliva
Text: 3. […] Record the time in your lab notebook.
1. […] Repeat with the other three saliva samples.
4. […] Repeat with the other three saliva samples.

CYP2C19 [5] = details: saliva, repeat doses of Formulation #4, per subject and tablet #
CYP2C19 [6] = test system: CYP2C19
plasma protein = details: Table of Exemplary Drugs, cited from earlier work
[7] = without an enteric coating or base protection; cited from earlier work
CYP1A2 = biological target: T1, CYP1A2 (Homo sapiens, UniProt P05177); test: Saliva phenotyping with caffeine probe (caffeine/paraxanthine metabolic ratio); format: in vivo
T1 sequence (P05177 1-516): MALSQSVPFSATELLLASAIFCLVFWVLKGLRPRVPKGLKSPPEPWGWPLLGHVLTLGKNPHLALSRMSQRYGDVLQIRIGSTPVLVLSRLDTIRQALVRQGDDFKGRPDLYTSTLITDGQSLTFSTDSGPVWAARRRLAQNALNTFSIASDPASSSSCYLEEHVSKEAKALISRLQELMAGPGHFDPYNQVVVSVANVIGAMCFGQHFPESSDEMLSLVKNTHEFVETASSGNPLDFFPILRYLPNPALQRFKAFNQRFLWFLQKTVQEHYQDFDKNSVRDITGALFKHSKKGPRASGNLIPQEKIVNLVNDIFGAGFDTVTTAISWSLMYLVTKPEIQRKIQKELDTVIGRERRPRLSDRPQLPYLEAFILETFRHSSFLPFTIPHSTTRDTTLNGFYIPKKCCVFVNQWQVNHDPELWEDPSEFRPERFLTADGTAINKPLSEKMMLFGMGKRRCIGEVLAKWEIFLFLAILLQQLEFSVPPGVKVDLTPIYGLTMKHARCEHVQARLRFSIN

CYP3A4 [8] = biological target: T2, CYP3A4 (Homo sapiens, UniProt P08684); parameters: endogenous in cells; host or cells: healthy volunteers, in vivo; saliva sampled; details: eplerenone; cited from earlier work
T2 sequence (P08684 whole entry): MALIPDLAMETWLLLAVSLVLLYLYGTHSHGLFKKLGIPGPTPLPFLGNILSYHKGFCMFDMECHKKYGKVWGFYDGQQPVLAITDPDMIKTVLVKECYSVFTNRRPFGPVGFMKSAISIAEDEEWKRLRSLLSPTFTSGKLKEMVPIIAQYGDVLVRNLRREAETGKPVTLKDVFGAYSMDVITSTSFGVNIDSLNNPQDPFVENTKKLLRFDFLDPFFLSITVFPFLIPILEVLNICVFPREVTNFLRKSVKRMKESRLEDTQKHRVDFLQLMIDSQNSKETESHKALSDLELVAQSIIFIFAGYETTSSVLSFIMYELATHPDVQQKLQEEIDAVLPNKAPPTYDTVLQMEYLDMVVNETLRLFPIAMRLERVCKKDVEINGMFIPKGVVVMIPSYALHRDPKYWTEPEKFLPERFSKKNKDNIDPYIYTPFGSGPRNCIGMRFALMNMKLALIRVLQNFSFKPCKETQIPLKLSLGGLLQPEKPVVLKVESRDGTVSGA

CYP3A4 [9] = biological target: T2, CYP3A4; details: parent and primary metabolite, CYP3A4 probe search
[10] = healthy adults, dextromethorphan 30 mg
[11] = Table of Exemplary Drugs, CYP2C19
[12] = saliva, healthy adults, omeprazole 20 mg
[13] = Table of Exemplary Drugs, CYP3A4

COc1ccc2c(c1)[C@]13CCCC[C@@H]1[C@H](C2)N(C)CC3 [Dextromethophan]
antimode (MR) marking poor metabolizers (CYP2D6 [1]; healthy Chinese subjects, 3 hours after 50 mg immediate release): 14 | antimode (MR) (CYP2D6 [1]; patients with renal disease, 3 hours after 30 mg immediate release): 33 | ORAL BIOAVAILABILITY ([2]; in vivo, po): 11% | HALF-LIFE ([3]; in vivo): 1.4 to 3.9 h | antimode (MR) marking poor metabolizers (CYP2D6 [4]; 6 hours after a 30 mg delayed release dose): 27.5 | CYP2D6 metabolic phenotype: Extensive (CYP2D6 [4]; [10]): 83.9% | CYP2D6 metabolic phenotype: Intermediate (CYP2D6 [4]; [10]): 9.2% | CYP2D6 metabolic phenotype: Poor (CYP2D6 [4]; [10]): 4.6% | CYP2D6 metabolic phenotype: Ultra-rapid (CYP2D6 [4]; [10]): 2.3%

COc1ccc2[nH]c([S+]([O-])Cc3ncc(C)c(OC)c3C)nc2c1 (centres unmarked) [Omeprazole]
Log10 Omeprazole/5-Hydroxy Omeprazole Metabolic Ratio (CYP2C19 [5]; time point 0.5 h): 0.9 and 2.3 (2×) and 1.4 and 2.4 and 3.5 and 3.1 | Log10 Omeprazole/5-Hydroxy Omeprazole Metabolic Ratio (CYP2C19 [5]; time point 1 h): 1.2 (2×) and 0.7 (2×) and 1.5 and 1.1 and 1.3 and 1.9 and 1.4 | Log10 Omeprazole/5-Hydroxy Omeprazole Metabolic Ratio (CYP2C19 [5]; time point 2 h): 0.6 (2×) and 0.5 and 1.3 (2×) and 0.9 and 0.8 and 1.1 and 1.0 and 1.2 and 0.4 and 2.0 | Log10 Omeprazole/5-Hydroxy Omeprazole Metabolic Ratio (CYP2C19 [5]; time point 3 h): 0.4 (2×) and 0.7 and 0.9 (2×) and 0.8 and 0.6 (2×) and 1.3 (2×) and 0.05 and 0.2 and 1.6 and 1.0 | Log10 Omeprazole/5-Hydroxy Omeprazole Metabolic Ratio (CYP2C19 [5]; time point 4 h): 0.4 (2×) and 1.2 and 1.0 and 0.6 (3×) and 0.7 and 0.9 and 0.03 and 1.3 | ORAL BIOAVAILABILITY [2, 11]: 30-40% | concentrations in saliva (CYP2C19 [6]; over the counter formulations, some individuals): found in low concentrations in saliva of some individuals | CYP2C19 metabolic phenotype: Extensive (CYP2C19 [6]; [12]): 49.4% | CYP2C19 metabolic phenotype: Intermediate (CYP2C19 [6]; [12]): 31.3% | CYP2C19 metabolic phenotype: Poor (CYP2C19 [6]; [12]): 7.2% | CYP2C19 metabolic phenotype: Rapid (CYP2C19 [6]; [12]): 9.6% | CYP2C19 metabolic phenotype: Ultra-rapid (CYP2C19 [6]; [12]): 2.4% | PLASMA PROTEIN BINDING (plasma protein; CYP2C19): 95-96% ^ | HALF-LIFE [3, 11]: 0.5 to 1 h | stability in acidic gastric fluids [7]: rapidly degrades

Cn1c(=O)c2c(ncn2C)n(C)c1=O [Caffeine]
complaints of individuals (CYP1A2; caffeine doses of 200 mg, some individuals): nervousness and anxiety | poor metabolizers, share of subjects (CYP1A2 phenotype) (CYP1A2; saliva, healthy primarily Caucasian adults, caffeine 200 mg): 7.8% | PLASMA PROTEIN BINDING (plasma protein; CYP1A2): 17-36% ^

COC(=O)[C@@H]1CC2=CC(=O)CC[C@]2(C)[C@@]23O[C@@H]2C[C@@]2(C)[C@@H](CC[C@@]24CCC(=O)O4)[C@H]13 [Eplerenone (Inspra), Eplerenone]
Tmax (CYP3A4 [8]): approximately 1.5 hours | ORAL BIOAVAILABILITY [2, 13]: 69% | PLASMA PROTEIN BINDING (plasma protein; CYP3A4): 50% | HALF-LIFE [3, 13]: 3 to 6 h

COC(=O)[C@H]1[C@H]2[C@@H]3CC[C@@]4(CCC(=O)O4)[C@@]3(C)C[C@H]3O[C@@]23[C@@]2(C)CCC(=O)C=C2[C@@H]1O [6Beta-Hydroxy Eplerenone]
concentrations in saliva (CYP3A4 [9]): sufficiently high concentrations in saliva
